Structures can show the parent of a compound that is named as a salt.
Columns and labels:
SrfN [1] = molecular target: T1, SrfN (Salmonella enterica, UniProt Q7CR88); test: 2-D 1H-15N HSQC NMR titration, chemical shift perturbation; format: binding; details: 0.5 mM SrfN monomer, oxyanion site, weak
T1 construct: gene STM0082; full-length synthetic gene in pGS-21a, C-terminal 6xHis tag kept, signal peptide (1-21) cleaved in E. coli, mature residues 22-96; 15N or 13C,15N labelled

SrfN [2] = molecular target: T1, SrfN; test: as above; format: binding
SEC-MALS = molecular target: the molecule itself; test: SEC-MALS

## O=C(O)C1=C[C@H](O)[C@@H](OS(=O)(=O)O)[C@H](O[C@H]2[C@H](O)[C@@H](NS(=O)(=O)O)C(O)O[C@@H]2COS(=O)(=O)O)O1 (stereo partly drawn) [heparin disaccharide, α-ΔUA-2S-[1→4]-GlcNS-6S]
SrfN [1]; 5 mM disaccharide (20:1 to dimer)
  2-D 1H-15N HSQC NMR titration, chemical shift perturbation: The interaction with heparin disaccharide appears to be somewhat weaker

## O=S(=O)(O)OC[C@H]1O[C@@](COS(=O)(=O)O)(O[C@H]2O[C@H](COS(=O)(=O)O)[C@@H](OS(=O)(=O)O)[C@H](OS(=O)(=O)O)[C@H]2OS(=O)(=O)O)[C@@H](OS(=O)(=O)O)[C@@H]1OS(=O)(=O)O [sucrose octasulfate]
SrfN [2]
  Kd: < 500 µM

## O=S(=O)(O)O [sodium sulfate]
SrfN [1]; neutral pH, 100-200 mM Na2SO4 (400-800:1 to dimer)
  2-D 1H-15N HSQC NMR titration, chemical shift perturbation: a region on the surface which interacts only weakly with sulfate ion at neutral pH

B1: SrfN (STM0082) of Salmonella enterica serovar Typhimurium LT2, processed form lacking the 21 N-termi (natural protein)
chain: AEQVSKQEISHFKLVKVGTINVSQSGGQISSPSDLREKLSELADAKGGKYYHIIAAREHGPNFEAVAEVYNDATK
modifications: uniform 15N or 13C,15N isotope labelling in the NMR samples
notes: also called StR109; SrfN dimer
SEC-MALS
  stoichiometry N: 2
